Measured values from ChEMBL document CHEMBL5465560, “Selectivity Literature for EUbOPEN Chemogenomic Library” (2024).

Key:
[1] = biological target: Ribosomal protein S6 kinase alpha-1 (Homo sapiens, UniProt Q15418); assay: Selectivity interaction (KinomeScan (DiscoverX)) EUB0000311b RPS6KA1; details: at 1 µM
[2] = biological target: Calcium/calmodulin-dependent protein kinase type 1B (Homo sapiens) (UniProt Q6P2M8); assay: Selectivity interaction (KinomeScan (DiscoverX)) EUB0001049a PNCK; details: at 1 µM
Chain of Calcium/calmodulin-dependent protein kinase type 1B (Homo sapiens) (Q6P2M8 whole entry): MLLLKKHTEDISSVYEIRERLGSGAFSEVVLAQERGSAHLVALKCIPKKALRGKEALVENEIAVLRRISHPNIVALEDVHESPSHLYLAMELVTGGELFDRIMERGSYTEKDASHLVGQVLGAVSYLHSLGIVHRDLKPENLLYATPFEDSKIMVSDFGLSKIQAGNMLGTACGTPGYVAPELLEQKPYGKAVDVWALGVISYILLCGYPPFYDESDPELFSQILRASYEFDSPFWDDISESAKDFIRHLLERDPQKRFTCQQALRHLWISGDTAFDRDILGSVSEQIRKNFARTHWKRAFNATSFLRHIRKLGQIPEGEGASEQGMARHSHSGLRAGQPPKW

[3] = system: Receptor-type tyrosine-protein kinase FLT3 (Homo sapiens), P36888 [UNDEFINED MUTATION]; assay: Selectivity interaction (KinomeScan (DiscoverX)) EUB0000229b FLT3; details: at 1 µM
Chain of Receptor-type tyrosine-protein kinase FLT3 (Homo sapiens), P36888 [UNDEFINED MUTATION] (P36888 whole entry, looked up, change not shown): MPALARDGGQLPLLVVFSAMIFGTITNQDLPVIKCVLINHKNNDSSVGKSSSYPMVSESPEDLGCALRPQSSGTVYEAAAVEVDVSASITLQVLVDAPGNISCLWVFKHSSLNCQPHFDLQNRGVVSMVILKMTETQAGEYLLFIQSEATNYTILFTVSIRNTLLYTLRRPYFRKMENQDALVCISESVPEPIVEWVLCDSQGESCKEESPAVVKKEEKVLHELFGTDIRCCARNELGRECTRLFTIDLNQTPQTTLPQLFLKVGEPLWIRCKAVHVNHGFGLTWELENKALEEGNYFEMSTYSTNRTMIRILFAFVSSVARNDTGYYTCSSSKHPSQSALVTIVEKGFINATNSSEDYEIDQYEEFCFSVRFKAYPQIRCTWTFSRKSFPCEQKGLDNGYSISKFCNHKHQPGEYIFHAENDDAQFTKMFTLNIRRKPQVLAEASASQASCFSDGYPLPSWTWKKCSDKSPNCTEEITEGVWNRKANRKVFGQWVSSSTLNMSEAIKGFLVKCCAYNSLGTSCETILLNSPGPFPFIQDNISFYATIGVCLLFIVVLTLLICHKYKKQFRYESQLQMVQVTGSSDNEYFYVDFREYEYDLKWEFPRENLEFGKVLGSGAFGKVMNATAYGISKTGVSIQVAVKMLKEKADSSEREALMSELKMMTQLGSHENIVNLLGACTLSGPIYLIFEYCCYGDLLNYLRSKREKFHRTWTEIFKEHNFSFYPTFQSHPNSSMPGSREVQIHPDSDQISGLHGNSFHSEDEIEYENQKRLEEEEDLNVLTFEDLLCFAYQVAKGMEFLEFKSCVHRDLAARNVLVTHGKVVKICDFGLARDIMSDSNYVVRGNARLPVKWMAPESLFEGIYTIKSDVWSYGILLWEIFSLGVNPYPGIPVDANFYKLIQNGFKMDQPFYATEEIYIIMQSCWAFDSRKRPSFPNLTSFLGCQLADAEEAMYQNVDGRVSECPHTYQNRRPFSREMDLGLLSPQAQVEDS

[4] = biological target: Serine/threonine-protein kinase tousled-like 2 (Homo sapiens) (UniProt Q86UE8); assay: Selectivity interaction (ActivX KiNativ screen (kinase selectivity in THP-1 cell lysates)) EUB0000639a TLK2; format: subcellular; details: lysate, at 5 µM
[5] = biological target: Serine/threonine-protein kinase 25 (Homo sapiens) (UniProt O00506); assay: Selectivity interaction (Ambit KINOMEscan and KiNATiv profiling in Jurkat cells) EUB0000090b STK25; format: cell-based; details: at 1 µM
[6] = biological target: Phosphatidylinositol 4-phosphate 5-kinase type-1 gamma (Homo sapiens) (UniProt O60331); assay: Selectivity interaction (KinomeScan (DiscoverX)) EUB0000618a PIP5K1C; details: at 10 µM
Insulin receptor = Insulin receptor (Homo sapiens, UniProt P06213); details: at 10 µM
[7] = biological target: T1, Serine/threonine-protein kinase Nek9 (Homo sapiens) (UniProt Q8TD19); assay: Selectivity interaction (ActivX KiNativ screen (ex vivo kinase selectivity in human PBMCs)) EUB0001619a NEK9; format: cell-based; details: PBMC, at 1 µM
T1 sequence (whole entry): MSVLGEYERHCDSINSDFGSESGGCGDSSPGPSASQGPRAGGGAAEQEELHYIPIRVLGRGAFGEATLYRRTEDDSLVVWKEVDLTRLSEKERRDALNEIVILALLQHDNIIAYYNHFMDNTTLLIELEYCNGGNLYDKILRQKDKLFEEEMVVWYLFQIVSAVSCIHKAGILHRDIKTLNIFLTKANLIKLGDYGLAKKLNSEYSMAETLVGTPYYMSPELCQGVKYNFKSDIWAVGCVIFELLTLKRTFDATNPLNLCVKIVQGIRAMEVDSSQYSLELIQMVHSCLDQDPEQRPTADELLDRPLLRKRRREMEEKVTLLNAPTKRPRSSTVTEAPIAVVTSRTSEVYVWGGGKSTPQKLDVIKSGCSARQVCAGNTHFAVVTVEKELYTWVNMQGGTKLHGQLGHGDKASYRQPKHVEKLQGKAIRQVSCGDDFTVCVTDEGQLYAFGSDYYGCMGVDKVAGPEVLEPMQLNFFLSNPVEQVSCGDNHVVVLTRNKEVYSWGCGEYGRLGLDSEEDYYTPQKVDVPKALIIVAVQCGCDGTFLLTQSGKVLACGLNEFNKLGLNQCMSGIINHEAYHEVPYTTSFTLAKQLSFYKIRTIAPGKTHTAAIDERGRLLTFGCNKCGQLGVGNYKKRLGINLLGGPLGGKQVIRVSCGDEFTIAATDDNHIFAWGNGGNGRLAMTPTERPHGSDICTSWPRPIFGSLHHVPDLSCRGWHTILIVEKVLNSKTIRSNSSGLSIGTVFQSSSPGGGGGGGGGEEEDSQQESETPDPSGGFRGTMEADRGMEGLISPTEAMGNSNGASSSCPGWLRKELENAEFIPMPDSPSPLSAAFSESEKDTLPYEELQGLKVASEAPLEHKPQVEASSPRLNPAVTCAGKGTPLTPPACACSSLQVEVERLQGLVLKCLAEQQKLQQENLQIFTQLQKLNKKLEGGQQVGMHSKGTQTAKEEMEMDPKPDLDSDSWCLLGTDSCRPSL

[8] = biological target: NT-3 growth factor receptor (Homo sapiens, UniProt Q16288); assay: Selectivity interaction (KinomeScan (DiscoverX)) EUB0000695a NTRK3; details: at 100 nM
[9] = biological target: Myosin-IIIa (Homo sapiens) (UniProt Q8NEV4); assay: Selectivity interaction (LanthaScreen Eu Kinase Binding Assay) EUB0001632a MYO3A; details: at 10 µM
Chain of Myosin-IIIa (Homo sapiens) (Q8NEV4 whole entry): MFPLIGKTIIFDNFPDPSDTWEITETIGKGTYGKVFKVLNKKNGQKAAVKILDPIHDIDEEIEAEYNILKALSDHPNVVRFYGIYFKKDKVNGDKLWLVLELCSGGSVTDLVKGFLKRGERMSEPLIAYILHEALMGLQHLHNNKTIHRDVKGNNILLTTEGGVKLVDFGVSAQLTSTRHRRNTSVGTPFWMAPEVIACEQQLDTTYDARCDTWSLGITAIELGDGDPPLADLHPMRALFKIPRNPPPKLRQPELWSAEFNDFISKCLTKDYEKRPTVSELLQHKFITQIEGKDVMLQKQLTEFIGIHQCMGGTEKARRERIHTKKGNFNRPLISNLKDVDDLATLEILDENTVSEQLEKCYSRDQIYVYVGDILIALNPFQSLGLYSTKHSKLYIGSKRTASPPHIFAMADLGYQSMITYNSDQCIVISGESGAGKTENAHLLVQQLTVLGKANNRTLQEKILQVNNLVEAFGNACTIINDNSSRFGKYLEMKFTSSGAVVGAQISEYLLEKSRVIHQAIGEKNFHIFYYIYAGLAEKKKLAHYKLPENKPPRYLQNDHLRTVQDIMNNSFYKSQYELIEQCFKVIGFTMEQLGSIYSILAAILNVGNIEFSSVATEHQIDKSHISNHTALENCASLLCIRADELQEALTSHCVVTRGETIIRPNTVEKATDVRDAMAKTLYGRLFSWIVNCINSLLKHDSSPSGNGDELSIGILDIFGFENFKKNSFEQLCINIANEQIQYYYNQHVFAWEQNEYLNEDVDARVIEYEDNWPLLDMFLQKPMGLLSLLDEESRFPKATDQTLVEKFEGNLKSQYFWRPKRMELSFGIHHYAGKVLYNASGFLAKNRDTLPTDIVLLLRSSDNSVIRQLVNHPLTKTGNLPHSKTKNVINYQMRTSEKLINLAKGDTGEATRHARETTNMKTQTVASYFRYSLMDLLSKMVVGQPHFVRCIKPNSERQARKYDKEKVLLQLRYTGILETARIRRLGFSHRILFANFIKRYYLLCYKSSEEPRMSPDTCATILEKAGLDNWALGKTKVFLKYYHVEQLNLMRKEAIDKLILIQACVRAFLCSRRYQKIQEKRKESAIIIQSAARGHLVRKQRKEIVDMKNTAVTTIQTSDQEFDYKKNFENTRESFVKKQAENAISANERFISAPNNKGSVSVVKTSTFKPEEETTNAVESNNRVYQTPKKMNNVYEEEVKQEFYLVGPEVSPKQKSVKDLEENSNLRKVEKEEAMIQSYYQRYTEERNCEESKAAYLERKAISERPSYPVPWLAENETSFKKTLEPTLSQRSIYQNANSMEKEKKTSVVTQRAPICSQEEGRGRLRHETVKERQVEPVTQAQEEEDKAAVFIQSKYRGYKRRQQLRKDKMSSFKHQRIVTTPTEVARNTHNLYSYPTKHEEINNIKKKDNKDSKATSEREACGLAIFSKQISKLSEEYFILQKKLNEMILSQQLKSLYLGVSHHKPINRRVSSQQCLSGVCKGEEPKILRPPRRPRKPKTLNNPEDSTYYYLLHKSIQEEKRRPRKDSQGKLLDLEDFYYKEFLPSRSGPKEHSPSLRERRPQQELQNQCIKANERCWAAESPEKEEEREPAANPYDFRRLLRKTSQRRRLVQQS

[10] = biological target: Protein kinase C eta type (Homo sapiens) (UniProt P24723); assay: Selectivity interaction (Kinase panel (Z-LYTE Assay)) EUB0001632a PRKCH; details: at 10 µM
[11] = biological target: T2, Mitogen-activated protein kinase kinase kinase 2 (Homo sapiens) (UniProt Q9Y2U5); assay: Selectivity interaction (LanthaScreen Eu Kinase Binding Assay) EUB0001632a MAP3K2; details: at 10 µM
T2 sequence (whole entry): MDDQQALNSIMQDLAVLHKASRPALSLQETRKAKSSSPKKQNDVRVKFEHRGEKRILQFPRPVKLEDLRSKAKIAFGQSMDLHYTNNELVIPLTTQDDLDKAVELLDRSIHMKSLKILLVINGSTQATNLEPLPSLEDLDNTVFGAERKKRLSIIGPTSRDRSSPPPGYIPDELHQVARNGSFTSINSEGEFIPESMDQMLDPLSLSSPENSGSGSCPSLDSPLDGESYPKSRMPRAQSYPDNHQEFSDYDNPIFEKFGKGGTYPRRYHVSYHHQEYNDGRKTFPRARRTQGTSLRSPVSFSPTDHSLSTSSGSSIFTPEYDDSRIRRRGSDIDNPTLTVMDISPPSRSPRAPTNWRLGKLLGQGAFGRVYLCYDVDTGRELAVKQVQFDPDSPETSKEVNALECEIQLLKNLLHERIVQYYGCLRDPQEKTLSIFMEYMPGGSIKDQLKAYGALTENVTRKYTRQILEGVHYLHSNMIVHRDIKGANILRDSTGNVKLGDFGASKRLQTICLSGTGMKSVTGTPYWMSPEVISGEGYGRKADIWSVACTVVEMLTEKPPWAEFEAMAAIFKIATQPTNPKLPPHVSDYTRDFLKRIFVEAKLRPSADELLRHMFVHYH

[12] = biological target: Sodium channel protein type 2 subunit alpha (Homo sapiens) (UniProt Q99250); assay: Selectivity interaction (Panel of non-epigenetic targets (kinases, GPCRs, ion channels, and transporters, Eurofins) ) EUB0000271b SCN2A; details: at 1 µM
Chain of Sodium channel protein type 2 subunit alpha (Homo sapiens) (Q99250 whole entry, looked up): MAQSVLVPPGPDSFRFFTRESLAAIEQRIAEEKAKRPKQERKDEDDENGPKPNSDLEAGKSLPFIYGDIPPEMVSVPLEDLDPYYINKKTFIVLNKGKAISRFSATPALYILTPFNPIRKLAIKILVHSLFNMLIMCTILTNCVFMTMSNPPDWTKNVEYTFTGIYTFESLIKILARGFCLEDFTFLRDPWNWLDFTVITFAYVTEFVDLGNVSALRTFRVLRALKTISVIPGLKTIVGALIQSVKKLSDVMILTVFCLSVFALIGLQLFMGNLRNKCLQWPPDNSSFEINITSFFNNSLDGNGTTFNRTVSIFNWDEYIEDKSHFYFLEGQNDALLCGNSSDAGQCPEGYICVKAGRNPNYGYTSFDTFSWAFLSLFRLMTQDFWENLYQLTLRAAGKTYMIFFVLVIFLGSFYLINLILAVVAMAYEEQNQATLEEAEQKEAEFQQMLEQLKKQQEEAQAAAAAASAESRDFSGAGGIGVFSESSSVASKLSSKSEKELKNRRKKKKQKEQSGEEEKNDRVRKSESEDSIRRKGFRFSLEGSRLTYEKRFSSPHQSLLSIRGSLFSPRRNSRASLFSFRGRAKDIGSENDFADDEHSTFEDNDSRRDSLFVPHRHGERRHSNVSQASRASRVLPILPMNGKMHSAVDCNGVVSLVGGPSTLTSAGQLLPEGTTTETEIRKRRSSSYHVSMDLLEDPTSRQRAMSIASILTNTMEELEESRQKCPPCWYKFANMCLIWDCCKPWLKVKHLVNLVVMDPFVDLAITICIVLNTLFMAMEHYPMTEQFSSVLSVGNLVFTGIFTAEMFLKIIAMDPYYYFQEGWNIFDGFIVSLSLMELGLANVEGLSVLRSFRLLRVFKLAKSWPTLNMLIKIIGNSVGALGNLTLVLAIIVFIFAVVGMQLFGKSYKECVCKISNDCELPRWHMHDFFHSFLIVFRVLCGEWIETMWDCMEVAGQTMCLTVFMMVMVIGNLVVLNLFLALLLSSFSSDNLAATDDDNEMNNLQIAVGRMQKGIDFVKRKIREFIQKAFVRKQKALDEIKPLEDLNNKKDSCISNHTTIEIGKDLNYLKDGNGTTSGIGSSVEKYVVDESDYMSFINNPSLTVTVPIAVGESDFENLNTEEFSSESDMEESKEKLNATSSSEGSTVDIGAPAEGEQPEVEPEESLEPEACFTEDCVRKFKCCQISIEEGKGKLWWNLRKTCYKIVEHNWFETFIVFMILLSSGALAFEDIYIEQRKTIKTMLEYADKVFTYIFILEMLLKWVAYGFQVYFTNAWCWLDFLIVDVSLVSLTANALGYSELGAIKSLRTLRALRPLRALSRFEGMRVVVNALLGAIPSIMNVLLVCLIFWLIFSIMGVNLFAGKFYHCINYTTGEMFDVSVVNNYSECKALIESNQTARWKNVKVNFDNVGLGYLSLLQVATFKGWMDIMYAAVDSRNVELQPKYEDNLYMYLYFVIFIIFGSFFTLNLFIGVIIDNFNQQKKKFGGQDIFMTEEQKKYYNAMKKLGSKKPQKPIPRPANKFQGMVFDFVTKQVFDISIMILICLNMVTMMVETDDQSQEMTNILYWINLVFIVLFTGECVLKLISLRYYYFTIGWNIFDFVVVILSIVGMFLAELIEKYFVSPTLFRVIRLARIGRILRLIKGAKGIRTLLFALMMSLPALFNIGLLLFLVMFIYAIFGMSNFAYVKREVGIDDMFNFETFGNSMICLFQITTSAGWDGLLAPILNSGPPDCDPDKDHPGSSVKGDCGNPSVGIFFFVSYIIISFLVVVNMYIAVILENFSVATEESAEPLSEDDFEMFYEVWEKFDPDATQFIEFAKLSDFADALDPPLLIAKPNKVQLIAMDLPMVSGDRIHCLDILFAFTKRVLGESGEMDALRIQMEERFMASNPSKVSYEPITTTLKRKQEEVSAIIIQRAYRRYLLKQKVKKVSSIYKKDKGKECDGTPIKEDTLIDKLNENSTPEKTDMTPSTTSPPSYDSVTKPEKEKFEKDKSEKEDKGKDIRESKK

`CCc1ccccc1C(=O)Nc1n[nH]c2c(C)c(F)c(C3C(C#N)=C(C)N(C)C(C)=C3C#N)cc12` [BAY-3827] gave a % of control [1] of 1.8%.
Work on `COc1cc(Nc2nc(C)cc(-c3cnn4nc(OC)ccc34)n2)cc(C(F)(F)F)c1` yielded a % of control [2] of 100%.
With `COc1cc(N(C)c2ccnc3ccc(C(F)(F)F)cc23)cc(OC)c1OC` the % binding [3] was 93%.
`CC[C@@H]1[C@H](F)C(=O)N[C@@H]1COc1nccc2cc(C(N)=O)c(OC)cc12` [ZIMLOVISERTIB] was tested, and the % of inhibition [4] was 80.5%.
For `CN(C)C/C=C/C(=O)Nc1ccc(C(=O)N2CCCC(Nc3ncc(Cl)c(-c4c[nH]c5ccccc45)n3)C2)cc1` (stereo not drawn), the % of control [5] was 77%.
With `O[C@H]1CC[C@H](Nc2ncc3nc(Nc4c(F)cc(F)cc4F)n([C@H]4CCOC4)c3n2)CC1` the % of control [6] was 76%.
Work on `Cc1cc([C@@H](C)Nc2ccccc2C(=O)O)c2nc(N3CCOCC3)cc(=O)n2c1` [AZD-6482] yielded a % of control (Insulin receptor) of 100%.
With `N#Cc1cccc(-c2c[nH]c3ncnc(N4CCOCC4)c23)c1` the % of inhibition [7] was 3%.
In the case of `Cc1cc(F)c(C(=O)Nc2cccc(-c3nncn3C(C)C)n2)cc1-n1cnc(C2CC2)c1`, the % of control [8] is reported as 86%.
In the case of `Cn1cc(-n2cnc3c(NCc4nc5cc(Cl)c(Cl)cc5[nH]4)nc(N4CCOCC4)nc32)cn1`, the % of inhibition [9] is reported as -42.6%, the % of control [10] is reported as 19.3% and the % of inhibition [11] is reported as -3.79%.
`Cc1cc(C)cc([C@@H]2c3cc(C)ccc3NC(=O)CN2C(=O)c2ccc(Br)s2)c1` showed a % of inhibition [12] of -22%.
